Results as given in patent US20250082633A1, “COMPOUNDS AND METHODS FOR MODULATING SPLICING” (REMIX THERAPEUTICS INC., priority 2021, published 2025).
Like-named read-outs stand apart in the source and are kept apart here.

Key:
Format in all cases: cell-based
HTT mRNA = experiment: RT-qPCR splicing assay, HTT canonical (CJ) and alternative (AJ) junction mRNA; details: Homo sapiens; for IC50: read-out: HTT CJ IC50; for AC50: read-out: HTT AJ AC50
Method in brief: (§1)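 Splice-junction mRNAs (CJ, AJ) measured by TaqMan one-step RT-qPCR on cell lysates, using PPIA as reference for adherent A673 and GAPDH or GUSB for K562. Cells exposed for 24 h to 11 threefold concentrations up to 10 uM final, with DMSO at or below 0.25%.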

MYB mRNA = experiment: RT-qPCR splicing assay, MYB canonical (CJ) and alternative (AJ) junction mRNA; details: Homo sapiens; for IC50: read-out: MYB CJ IC50; for AC50: read-out: MYB AJ AC50
Method in brief: as §1

Target C = experiment: RT-qPCR splicing assay, gene panel, Target C canonical junction (CJ) mRNA; details: Homo sapiens, read-out: Target C CJ IC50
Method in brief: (§2)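 A673 (DMEM/10% FBS) or K562 (IMDM/10% FBS) cells were treated 24 h at 37 °C with an 11-point 3-fold dilution series, top final 10 uM, DMSO ≤0.25%. Lysates underwent one-step RT-qPCR for the canonical-junction isoform with GAPDH, GUSB or PPIA as housekeeper. ΔΔCt versus DMSO was converted to RQ (2^−ΔΔCt), then to percent response.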

SMN2 mRNA = experiment: RT-qPCR splicing assay, gene panel, SMN2 canonical junction (CJ) mRNA; details: Homo sapiens, read-out: SMN2 CJ IC50
Method in brief: as §2

K562 cells = experiment: Cell Titer Glo 2.0 cell viability assay; details: Homo sapiens, 500 cells/well, 72 hours
Method in brief: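 K562 cells (500/well) in IMDM with 10% FBS were exposed to serially diluted compounds at 0.1% DMSO final. After 72 h at 37° C, 5% CO2, viability was read by CellTiter-Glo 2.0 luminescence, with medium-only blanks.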

[1] = decrease in CJ mRNA levels, larger panel of genes, Table 3
[2] = decrease in canonical junction mRNA, A673 or K562 cells, 24 hours treatment, Table 2
[3] = increase in alternative junction mRNA, A673 or K562 cells, 24 hours treatment, Table 2

Row | SMILES | IC50 (HTT mRNA; [1]) [nM] | IC50 (HTT mRNA; [2]) [nM] | AC50 (HTT mRNA; [3]) [nM] | IC50 (MYB mRNA; [1]) [nM] | IC50 (MYB mRNA; [2]) [nM] | AC50 (MYB mRNA; [3]) [nM] | IC50 (Target C; [1]) [nM] | IC50 (SMN2 mRNA; [1]) [nM] | GI50 (K562 cells) [nM] | AC50 (HTT mRNA; 24 h) [nM] | IC50 (HTT mRNA; 24 h) [nM] | IC50 (HTT mRNA) [nM] | AC50 (MYB mRNA; 24 h) [nM] | IC50 (MYB mRNA; 24 h) [nM] | IC50 (MYB mRNA) [nM] | IC50 (Target C) [nM] | IC50 (SMN2 mRNA) [nM]
1 | CCN1CCC(n2cc3cc(-c4cc(C)c5nc(C)cn5n4)cc(F)c3n2)CC12CC2 (stereo not drawn) [Compound 177, 6-[2-(4-ethyl-4-azaspiro[2.5]octan-7-yl)-7-fluoro-indazol-5-yl]-2,8-dimethyl-imidazo[1,2-b]pyridazine] | < 100 | < 100 | < 100 | 100 to 1000 | 100 to 1000 | 100 to 1000 | < 100 | < 100 | 100 to 1000 |  |  |  |  |  |  |  | 
2 | Cc1cn2nc(-c3cc(F)c4nn(C5CCN(CCO)C6(CC6)C5)cc4c3)cc(C)c2n1 (stereo not drawn) [Compound 180, 2-[7-[5-(2,8-dimethylimidazo[1,2-b]pyridazin-6-yl)-7-fluoro-indazol-2-yl]-4-azaspiro[2.5]octan-4-yl]ethanol] |  |  |  |  |  |  |  |  | 100 to 1000 | < 100 | < 100 | < 100 | 100 to 1000 | 100 to 1000 | 100 to 1000 | 100 to 1000 | < 100
3 | Cc1cn2nc(-c3cc(F)c4nn(C5CCN(CC6CC6)C6(CC6)C5)cc4c3)cc(C)c2n1 (stereo not drawn) [Compound 183, 6-[2-[4-(cyclopropylmethyl)-4-azaspiro[2.5]octan-7-yl]-7-fluoro-indazol-5-yl]-2,8-dimethyl-imidazo[1,2-b]pyridazine] | < 100 | < 100 | < 100 | 100 to 1000 | 100 to 1000 | 100 to 1000 | < 100 | < 100 | 100 to 1000 |  |  |  |  |  |  |  | 
4 | Cc1cn2nc(-c3cc(F)c4nn(C5CCN(C6CCC6)C6(CC6)C5)cc4c3)cc(C)c2n1 (stereo not drawn) [Compound 186, 6-[2-(4-cyclobutyl-4-azaspiro[2.5]octan-7-yl)-7-fluoro-indazol-5-yl]-2,8-dimethyl-imidazo[1,2-b]pyridazine] |  |  |  |  |  |  |  |  | 100 to 1000 | < 100 | < 100 | < 100 | 100 to 1000 | 100 to 1000 | 100 to 1000 | < 100 | < 100
5 | Cc1cn2nc(-c3cc(F)c4nn(C5CCNC6(CCC6)C5)cc4c3)cc(C)c2n1 (stereo not drawn) [Compound 189, 6-[2-(5-azaspiro[3.5]nonan-8-yl)-7-fluoro-indazol-5-yl]-2,8-dimethyl-imidazo[1,2-b]pyridazine] | < 100 | < 100 | < 100 | 100 to 1000 | 100 to 1000 | 100 to 1000 | 100 to 1000 | < 100 | 100 to 1000 |  |  |  |  |  |  |  | 
6 | Cc1cn2nc(-c3ccc4nn(C5CCNCC5)cc4c3)cc(C)c2n1 [Compound 192, 2,8-dimethyl-6-[2-(4-piperidyl)indazol-5-yl]imidazo[1,2-b]pyridazine] | < 100 | < 100 | 100 to 1000 | 100 to 1000 | 100 to 1000 | 100 to 1000 | 100 to 1000 | < 100 | 100 to 1000 |  |  |  |  |  |  |  | 
7 | Cc1cn2nc(-c3cc(F)c4nn(CC5CCNCC5)cc4c3)cc(C)c2n1 [Compound 212, 6-[7-fluoro-2-(4-piperidylmethyl)indazol-5-yl]-2,8-dimethyl-imidazo[1,2-b]pyridazine] | < 100 | < 100 | < 100 | 100 to 1000 | 100 to 1000 | 100 to 1000 | 100 to 1000 | < 100 | 100 to 1000 |  |  |  |  |  |  |  | 
